Literature values as cited in article PMC9146896, “Uracil as a Zn-Binding Bioisostere of the Allergic Benzenesulfonamide in the Design of Quinoline–Uracil Hybrids as Anticancer Carbonic Anhydrase Inhibitors” (Pharmaceuticals, 2022).
Values joined by “and” are separate entries in the source; they are usually repeats but may differ in a detail not shown here. Equal values may be shown once.

How the values were obtained:
[1] = target: hCA IX (Homo sapiens, UniProt Q16790); design: method as in PMID 34681794; details: cited from earlier work
[2] = target: hCA XII (Homo sapiens, UniProt O43570); design: method as in PMID 34681794; details: cited from earlier work
[3] = target: hCA II (Homo sapiens, UniProt P00918); details: range, quinoline-based sulfonamides; cited from earlier work
[4] = target: hCA I (Homo sapiens, UniProt P00915); details: range, quinoline-based sulfonamides; cited from earlier work
Sequence of hCA I (P00915 whole entry): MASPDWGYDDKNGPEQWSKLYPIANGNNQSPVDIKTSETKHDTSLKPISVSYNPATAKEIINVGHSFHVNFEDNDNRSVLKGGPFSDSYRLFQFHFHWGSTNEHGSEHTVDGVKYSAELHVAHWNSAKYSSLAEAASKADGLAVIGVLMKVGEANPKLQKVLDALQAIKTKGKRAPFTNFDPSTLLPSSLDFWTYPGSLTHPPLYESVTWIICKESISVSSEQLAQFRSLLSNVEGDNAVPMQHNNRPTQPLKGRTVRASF

Sequence of hCA XII (O43570 25-354): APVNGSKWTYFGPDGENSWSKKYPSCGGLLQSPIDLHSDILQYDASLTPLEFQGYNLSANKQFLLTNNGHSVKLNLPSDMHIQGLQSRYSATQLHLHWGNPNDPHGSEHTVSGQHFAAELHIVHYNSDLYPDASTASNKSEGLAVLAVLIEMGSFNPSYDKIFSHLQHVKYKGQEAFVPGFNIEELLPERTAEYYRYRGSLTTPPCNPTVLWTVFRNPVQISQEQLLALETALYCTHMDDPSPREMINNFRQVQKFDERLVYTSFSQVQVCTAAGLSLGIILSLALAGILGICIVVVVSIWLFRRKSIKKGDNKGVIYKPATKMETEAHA

In the case of `NS(=O)(=O)c1cc(Nc2ccnc3ccc(Cl)cc23)ccc1Cl` [Compound II], the Ki [1] is listed as 18.6 nM and 19 nM and the Ki [2] is listed as 9 nM.
For `CCOC(=O)c1cnc2cc(Cl)c(F)cc2c1Nc1cccc(S(N)(=O)=O)c1` [Compound I], the Ki [3] is given as 83 to 3590 nM and the Ki [4] is given as 0.966 to 9.09 µM and 0.96 to 9.09 µM.
